# According to patent publication US20240293464A1, “TISSUE REPAIR” (priority 2021, published 2024):
# Columns and labels:
# Format in all cases: in vivo, horse
# tendon/ligament lesions = assay: Equine tendon/ligament lesions from original injury through treatment (Example 8); conditions: oral 160,000 IU once per day
# Method: Side effects and tolerability were also recorded. The administration of vitamin A supplement, and the vitamin A supplement used, were the same as that of Example 7. 7 horses with 7 injured limbs were enrolled in the study between March and May 2021. The injuries comprised 3 tendon and 4 ligament injuries. The inclusion criteria were polo horses with diagnosed tendon/ligament injuries regardless of time since injury. The exclusion criteria were horses with acute connective tissue injuries. All statistical analysis was performed on SPSS v27. Missing values were handled by last observation carried forward. Descriptive statistics were used to describe baseline and follow-up values. The results were first tested for normality using the Shapiro-Wilk test. The results at weeks 3, 5 and 7 were then analysed compared to baseline using two-tailed paired Student's t-tests once normality was proven.
# injured tendon/ligament = assay: Effect of activity level on connective tissue improvement (Example 11); conditions: week 7, full-treatment doses
# Method: The vitamin A supplement used, its administration, and the subjects of the investigation comprise those of Example 7. Improvement (as a % of baseline) of the injured tendon/ligament was performed at 7 weeks into the trial. All 14 horses were administered full-treatment doses of vitamin A supplement from week 0 to week 7 whilst being put to work. 7 horses were put on light/no work and 7 on full work. The allocation of each horse into one of the two groups was determined by the respective owner of the horse, who decided based on whether they could afford for the horse to be put on light work (and thus investigate the isolated effect of vitamin A supplement on lesion progression) or whether the horse was required to be put back to full work.
# Tendon injury = assay: Echogenicity ratio of tendon lesion or injured tendon to adjacent healthy tendon (Example 9)
# From the text: Structures composed of different tissue will have different echogenicities. The health of a tissue such as a tendon can be assessed by comparing the echogenicity of the tissue with that of a corresponding healthy tissue. Healthy tendons comprising native tissue and normal architecture are usually hyperechoic and appear white on the sonogram; they are capable of reflecting ultrasound that is cast over the tissue. An injured tendon comprising a lesion will appear as less hyperechoic, and more hypoechoic as tendon fibers are interrupted and defects are usually filled with fluid, blood, or fat. Severe lesions will be anechoic, and will display as completely dark on the sonogram. […] The echogenicity of a tendon lesion was assessed by comparing grey scale statistics of the tendon lesion with the values of healthy adjacent tendon tissue (FIG. 18(b)). Due to equine anatomy, there is always a directly adjacent healthy tendon to use as a control (ultrasonography is […] by depth of tissue). The statistics comprised determining the mean pixel intensity at a number of random points on the lesion and the healthy tendon, and calculating a mean value for the echogenicity of each tissue. A ratio of mean echnogenicity of the lesion and the healthy tissue was determined to assess the extent of damage/healing at the lesion. Vitamin A supplement used, its administration, and the subjects investigated, comprise those of Example 7.
# tendon/ligament injuries = assay: Single armed pilot trial in equine connective tissue injuries, lesion size by ultrasonography (Example 7)
# Method: The time since injury of each horse was noted. […] Side effects and tolerability were also recorded.
# 14 horses with 15 injured limbs were enrolled in the study between March and May 2021. The injuries comprised 9 tendon and 6 ligament injuries, with 12 injuries on the left side of the horse and 3 on the right. The mean time since injury was ˜ 12 months. The tendon injuries comprised 2 acute injuries (<1 month old) and 7 chronic injuries, with a mean time since injury of 13.1 months, and a range of 9-20 months. The ligamentous injuries comprised 6 chronic injuries, with a mean time since injury of 14.3 months and a range of 4-30 months.
# All statistical analysis was performed on SPSS v27. Missing values were handled by last observation carried forward. Descriptive statistics were used to describe baseline and follow-up values. The results were first tested for normality using the Shapiro-Wilk test. The results at weeks 3, 5 and 7 were then analysed compared to baseline using two-tailed paired Student's t-tests once normality was proven. One-tailed Pearson correlation test was performed to determine if outcomes was correlated with time since injury as we hypothesise that older, more established injuries may benefit less from our supplementation.
# [1] = test system: connective tissue injuries (tendon/ligament lesions); assay: Post-treatment maintenance dose, double-blind randomised placebo-controlled trial (Example 10)
# From the text: Maintenance dose of vitamin A palmitate (retinyl palmitate) in a vehicle, delivered in dry feed at 8,000 IU per kg feed dry matter.
# The methodology and subjects of the investigation comprise those of Example 7.
# The trial was a double-blind randomised controlled trial.
structure (smiles),measurement,setting,value
"CCCCCCCCCCCCCCCC(=O)OC/C=C(C)/C=C/C=C(C)/C=C/C1=C(C)CCCC1(C)C [vitamin A supplement, Vitamin A palmitate]","Change in ligament lesion size, baseline to week 7","tendon/ligament lesions; ligaments, outlier excluded (n=3)",reduction in the size of two of the three lesions
same,"Mean improvement in lesion size, baseline to week 7","tendon/ligament lesions; tendons n=3, chronic injuries, p=0.04",30.62%
same,Improvement from baseline,injured tendon/ligament; horses on full work (n=7),45.05%
same,Improvement from baseline,injured tendon/ligament; horses on light or no work (n=7),30.35%
same,% increase of mean echogenicity ratio (lesion/healthy tendon),Tendon injury; baseline to week 7,32.7%
same,Mean echogenicity ratio of tendon lesion to adjacent healthy tendon,"Tendon injury; baseline, 1 = perfect regeneration of native tendon",0.52
same,Mean echogenicity ratio of injured tendon (area of lesion excluded) to adjacent healthy tendon,Tendon injury; week 0,0.76
same,Mean echogenicity ratio of injured tendon (area of lesion excluded) to adjacent healthy tendon,"Tendon injury; week 7, oral 160,000 IU once per day",0.82
same,Mean echogenicity ratio of tendon lesion to adjacent healthy tendon,"Tendon injury; week 7, oral 160,000 IU once per day, 1 = perfect regeneration",0.69
same,Mean lesion size,"tendon/ligament injuries; baseline, 15 injuries",41.44%
same,"Percentage improvement, baseline to week 7","tendon/ligament injuries; outlier at 20 months since injury, complete avulsion of the ligament",−25%
same,"Percentage improvement, baseline to week 7",tendon/ligament injuries; two outlier subjects at 12 months since injury,100%
same,Mean lesion size,"tendon/ligament injuries; week 3, oral 160,000 IU once per day, p=0.169 vs baseline",35.87%
same,Mean lesion size,"tendon/ligament injuries; week 5, oral 160,000 IU once per day, p<0.001 vs baseline",28.37%
same,Mean lesion size,"tendon/ligament injuries; week 7, oral 160,000 IU once per day, p=0.006 vs baseline",31.73%
same,"Change in lesion size from week 7 to week 14, intragroup","[1]; maintenance dose 80,000 IU/day, compared with placebo group",−24.5%
same,Mean lesion size of the maintenance dose group,"[1]; week 14, after 7 weeks of 80,000 IU/day following 7 weeks of full dose, 31.73% at week 7",~20.00%
same,Lesion health on ultrasonogram in one re-injured subject,"[1]; week 14, after 7 weeks of maintenance dose, FIG. 21",the health of this particular lesion deteriorated
